Data as given in patent US12508322B2, “MIR-145 micelles for mitigating atherosclerosis” (University of Southern California, priority 2021, dated 2025).

What was measured:
atherosclerotic plaques = assay: Analysis of atherosclerotic lesions (aortic root H&E, en face Oil Red O) after a single IV dose; format: in vivo, mice
Experimental: Male Myh11-CreER^T2 ROSA26 STOP-flox eYFP^+/+ Apoe^−/− mice and female Apoe^−/− mice were used for all studies as the Myh11 transgene is expressed only in male mice. Mice were genotyped by qPCR. Following previously reported methods, mice received ten intraperitoneal injections of 1 mg tamoxifen from 6 weeks of age to 8 weeks for 10 mg total of tamoxifen per 25 g of mouse body weight.
(§1) Subsequently, mice were fed a high fat diet (20-23% milkfat, 34% sucrose, 0.2% cholesterol, Teklad Envigo) for 2 weeks before intravenous tail vein injection of treatment (miR-145 micelles, miR-67 micelles, scrambled MCP-1 (NT) miR-145 micelles, free miR-145 (1 mg/kg miR or 0.7 mM total micelle), or PBS). Mice continued high fat diet for an additional 4 weeks or 8 weeks for short- and longer-term efficacy analyses. Mice were then euthanized via CO2 asphyxiation and perfused with PBS, 4% paraformaldehyde (PFA), and PBS again. Organs and aorta were carefully dissected and saved for additional analyses.
Atherosclerotic plaques were analyzed in two ways: 1) en face analysis of entire aorta with Oil Red O (ORO) lipid stain and 2) hematoxylin and eosin (H&E) stains of cross sections of aortic roots. Briefly, aortas were dissected from the root to the common iliac arteries. Excess adventitial fat was carefully removed and the aorta was fixed in 4% PFA overnight. The tissue was then cleaned in 78% methanol for 5 min before staining for 1 h with 0.2% ORO solution in methanol. The aortas were then washed twice with 78% methanol for 5 min each and cut open longitudinally before imaging with a stereomicroscope (Leica, Wetzlar, Germany). Quantification of positively stained lesions was done using ImageJ software (NIH, Bethesda, MD). Aortic roots were embedded in optimal cutting temperature compound (OCT) and flash frozen in 2-methylbutane and liquid nitrogen. Roots were sectioned at 10 μm thick sections and stained using H&E. Plaque and necrotic core area in three aortic root sections were quantified and averaged for each sample to obtain a mean±S.D. measurement.

miR-145 = assay: In vivo miR-145 expression in liver tissue (RT-qPCR); design: species or system mice; conditions: one month post treatment
Experimental: as §1
Aortic roots and liver tissue were obtained from treated mice. Tissues were weighed and lysed with Trizol (Invitrogen, Carlsbad, CA). miRNeasy Mini Kit (Qiagen, Hilden, Germany) was used to extract microRNA and the miScript II RT Kit (Qiagen, Hilden, Germany) was used to synthesize cDNA according to manufacturer's instructions. Real-time qRT-PCR was performed on the LightCycler 480 Real-Time PCR System ([…]) to evaluate miR-145 levels. RNU-6 was used as an internal control and the 2-AACT method was used to calculate relative expression changes.

[1] = Serum cholesterol quantification (HDL, LDL); format: in vivo, mice; conditions: two months post injection
Experimental: Serum cholesterol levels were quantified using a high density lipoprotein (HDL) and low density lipoprotein (LDL) quantification kit (Sigma-Aldrich). Following the manufacturer's protocol, HDL and LDL were separated in serum using precipitation buffer. HDL and LDL samples were subsequently incubated with Reaction Mixes and fluorescence (ex: 535 nm/em: 587 nm) was measured using a plate reader (Varioskan LUX, Thermo Fisher, Waltham, MA, USA).

[2] = system: VSMC phenotype in plaques (α-SMA, CD68, RUNX2, eYFP); assay: In vivo immunohistochemistry: cellular composition of aortic root plaques; design: species or system mice; conditions: one month after single dose
Experimental: as §1
Aortic roots were cryosectioned as mentioned above. Tissue sections were blocked in 10% donkey serum with 1% BSA. Sections were subsequently stained with antibodies to GFP (Abcam ab6673), α-SMA (Abcam ab5694), CD68 (Abcam ab125212), and RUNX2 (Abcam ab192256) overnight at 4° C. Donkey anti-rabbit IgG Alexa Fluor 594 (Thermo Fisher, Waltham, MA, USA) and donkey anti-goat IgG Alex Fluor 488 (Thermo Fisher, Waltham, MA, USA) were used as secondary antibodies. Sections were counterstained with DAPI for the nuclei, mounted in ProLong Gold Antifade (Thermo Fisher, Waltham, MA, USA), and imaged using a confocal microscope (Nikon C2 CLSM, Nikon, Tokyo, Japan). Cells were then counted using ImageJ software. […]

[3] = one month after single dose, 1 mg/kg miR IV

## free miR-145: unformulated miR-145, 5′-GUCCAGUUUUCCCAGGAAUCCCU-3′ (SEQ ID NO: 2) (listed as RNA, chemistry not given here; listed as Homo sapiens)
Atherosclerotic plaques; [3]
  overall lesion area of the aorta (ORO en face): 7.0±1.3%
  plaque area in the aortic root: 2.1±0.9%
Atherosclerotic plaques; two months after single dose
  lesion area by en face ORO staining: 8.0±2.0%
  plaque/lesional area in the aortic root: 10.8±5.0%
miR-145
  miR-145 expression in the liver, fold increase compared to PBS: 1.5 fold
[1]
  serum HDL level: increases
[2]
  overlap in eYFP and α-SMA signal (α-SMA+YFP+/YFP+): 30.0±22.1%
  α-SMA expression within plaques (α-SMA+/DAPI): 40.1±30.7%
